Test results from patent EP4685142A1, “TRIAZINE COMPOUND AND USE THEREOF” (Chengdu Zenitar Biomedical Technology Co., Ltd., priority 2023, dated 2024).

Columns and labels:
[1] = tested on: IL-1β in human PBMC cells; experiment: Inhibitory activity on IL-1β in human PBMC cells (LPS + Nigericin, ELISA); format: cell-based; conditions: human PBMC, LPS 1 µg/mL 3 h, drug 40 min, Nigericin 10 µM 40 min, IL-1β ELISA; read-out: IC50
Description: 2. Determination of inhibitory activity of compounds on IL-1β in human PBMC cells
Human peripheral blood mononuclear cells (PBMCs) were taken and cultured overnight in RPMI 1640 culture medium containing 10% FBS and antibiotics before stimulation. On the second day, the culture medium was replaced with a serum-reduced culture medium, the grown cells were stimulated for 3 h with LPS at a working concentration of 1 µg/mL, stimulated for 40 min with a drug, and then stimulated for 40 min with Nigericin at a concentration of 10 µM, the cell supernatant was harvested, and the yield of IL-1β was detected by ELISA.
The experimental results are shown in Table 3: Table 3 Inhibitory effect of compounds on IL-1β in PBMC cells

LPS-induced mice = experiment: LPS-induced mouse model, survival; format: in vivo, Balb/c mice; conditions: for survival status of mice (mice alive) 12h / survival status of mice (mice alive) 24h / survival status of mice (mice alive) 36h / survival status of mice (mice alive) 48h / survival status of mice (mice alive) 72h: 25 mg/kg

CC(C)(O)c1coc(S(=O)(=O)NC(=O)Nc2c3c(cc4c2CCC4)CCC3)c1 [MCC950, reference compound]
IC50 [1]: 7.81 nM
72h Survival rate (LPS-induced mice; 25 mg/kg oral, 1 h before 10 mg/kg LPS i.p.): 60%
survival status of mice (mice alive) 12h (LPS-induced mice; First cage (5 mice)): 5
survival status of mice (mice alive) 24h (LPS-induced mice; First cage (5 mice)): 5
survival status of mice (mice alive) 36h (LPS-induced mice; First cage (5 mice)): 4
survival status of mice (mice alive) 48h (LPS-induced mice; First cage (5 mice)): 4
survival status of mice (mice alive) 72h (LPS-induced mice; First cage (5 mice)): 4
survival status of mice (mice alive) 12h (LPS-induced mice; Second cage (5 mice)): 5
survival status of mice (mice alive) 24h (LPS-induced mice; Second cage (5 mice)): 4
survival status of mice (mice alive) 36h (LPS-induced mice; Second cage (5 mice)): 4
survival status of mice (mice alive) 48h (LPS-induced mice; Second cage (5 mice)): 2
survival status of mice (mice alive) 72h (LPS-induced mice; Second cage (5 mice)): 2
